Laboratory results reported in patent US20120053239A1, “TREATMENT FOR INTESTINAL GAS, BLOATING, MICROSCOPIC COLITIS, INFLAMMATORY BOWEL DISEASE AND TRAVELER'S DIARRHEA USING COLLOIDAL BISMUTH SUBCITRATE” (priority 2006, published 2012).

What was measured:
[1] = 20 clinical studies, more than 5000 patients; cited from earlier work
[2] = CBS in one patient with symptomatic microscopic colitis; assay type: in vivo, human; settings: CBS 600 mg three times daily for one month
[3] = cited from earlier work
[4] = Single dose of CBS in a dog with excessive gas after a large meal; assay type: in vivo; settings: single dose of CBS 125 mg
Description: (§1) The inventor has specific clinical experience with the use of CBS. Six patients who had episodic both severe flatus passage and gastrointestinal discomfort after the consumption of large quantities of nonabsorbable carbohydrates were treated with CBS obtained from a compounding pharmacy. […] A single dose of CBS 125 mg was administered to a dog with excessive and bothersome gas following a large meal including table food.

[5] = Inventor's clinical experience: CBS in patients with severe flatus passage and gastrointestinal discomfort after nonabsorbable carbohydrates; assay type: in vivo, human; settings: six patients; CBS 125 mg, 1 or 2 capsules per day or twice a day for one to two days
Description: as §1

Molecule	side effects compared with ranitidine alone [1]	symptoms of microscopic colitis [2]	safety of use in nonulcer dyspepsia ([3]; 480 mg of CBS daily for 8 weeks)	serum bismuth levels after ingestion ([3]; up to 480 mg per day of CBS for more than 4 weeks)	flatus after administration [4]	acute symptoms of excess of gas passage [5]	toxic effects [5]
CNC(=C[N+](=O)[O-])NCCSCc1ccc(CN(C)C)o1.O=C([O-])CC(O)(CC(=O)[O-])C(=O)[O-].[Bi+3] [ranitidine bismuth citrate]	no different than those seen with ranitidine alone	–	–	–	–	–	–
colloidal bismuth subcitrate [CBS]	–	complete resolution of symptoms	safe use	safe serum bismuth levels	Complete session of flatus	completely eliminated all of acute symptoms	No toxic effects were noted
